The record followed here is US7537775B2, “Low pH skin care compositions containing dehydroacetic acid” (The Procter & Gamble Company, priority 2005, dated 2009).

The data set in a line: Stability of dehydroacetic acid in aqueous low-pH skin care compositions. In kind it is physicochemical. The following applies: observation from formulation attempts. From the text:
Dehydroacetic acid also has proven effective in improving skin texture and appearance, and has the additional benefit of reducing oily skin. See, for example, Biederman et al., U.S. Pat. No. 6,150,403. […] Therefore, a need remains for stable, low-pH skin care compositions to effect delivery of dehydroacetic acid, either alone or in combination with other low-pH skin care actives.
The present invention describes skin care compositions in which dehydroacetic acid is stabilized at a pH of about 4.5 and below. […] To effect stabilization of dehydroacetic acid, the compositions of the present invention include oils that have both an optimal solubility parameter and limited solubility in water. The present invention describes stable skin care compositions made by a procedure that utilizes this combination of properties to stabilize dehydroacetic acid in its active form at a low-pH.
Herein, “stable” and “stability” mean compositions which are substantially unaltered in chemical or physical state. […] Transport and storage conditions may include prolonged exposure to temperatures of from about −50° F. to about 150° F. Stability may be determined either by empirical observation or by appropriate methods of chemical analysis that would be known to one of skill in the art.

`CC(=O)C1C(=O)C=C(C)OC1=O` (stereo not shown) [dehydroacetic acid, 3-acetyl-6-methyl-2H-pyran-2,4,(3H)-dione]: the “pH below which dehydroacetic acid begins to exhibit instability” value is recorded as “below 7.0”.
